Test [1] has as its system L6-GLUT4myc myotubes. As to the kind of experiment: GLUT4 translocation: cell surface GLUT4myc by anti-Myc antibody assay in L6-GLUT4myc myotubes. Also noted: key to GLUT4 translocation: fold of vehicle-treated group. In kind it is cell-based, rat. As to conditions: for Ratio: GLUT4 translocation normalized to vehicle; for A - background / A: Abs. (450 nm): GLUT4 translocation. On the procedure: The L6-GLUT4myc rat myoblast cell line was obtained from Dr. Amira Klip and Dr. Philip Bilan, through a license granted by The Hospital for Sick Children, 555 University Avenue, Toronto, Ontario, Canada M5G 1 × 8; or purchased from Kerafast, Boston, MA (ESK202)[43]. The 3T3-L1-GLUT4myc fibroblast cell line was provided by Dr. Tomoyuki Yuasa, Tokushima University[44]. L6-GLUT4myc myoblasts were grown in MEMα (32571036, Thermo Fisher Scientific, Waltham, MA) supplemented with 10% FBS and 1% antibiotics, and then induced to differentiate into myotubes in MEMα supplemented with 2% FBS and 1% antibiotics for 5–8 days. 3T3-L1-GLUT4myc fibroblasts were induced to differentiate into adipocytes as described previously,[45] with minor modifications. Briefly, cells were grown to confluence in growth medium: DMEM (10569010, Thermo Fisher Scientific) supplemented with 10% FBS and 1% antibiotics, and then induced to differentiate into adipocytes in growth medium supplemented with 1 μM dexamethasone, 2 μM rosiglitazone, 0.5 mM isobutylmethylxanthine, and 10 μg mL^−1 insulin for 2 days. The adipocytes were then cultured in growth medium supplemented with 10 μg mL^−1 insulin for a few days before being used for the experiments.
Cell surface GLUT4 levels in the L6-GLUT4myc myoblasts and myotubes were determined by antibody binding assay as described previously[43],[44], with minor modifications. Briefly, cells in a 96- or 24-well plate were starved in serum-free MEMα (0.1% BSA and 1% antibiotics) for 3 h and then treated with the indicated concentrations of DS20060511 and/or insulin for 30 min at 37 °C. After fixation with 4% paraformaldehyde, the cells were incubated with 1% glycine in PBS at 4 °C for 10 min, and blocked with 10% normal goat serum and 3% BSA in PBS at 4 °C for 30 min. The cells were then incubated with anti-c-Myc antibody (sc-40, 1:500) diluted with blocking buffer at 4 °C for 1 h, washed with cold PBS(+), incubated with HRP-conjugated anti-mouse IgG diluted with blocking buffer at 4 °C for 30 min, and then washed again. SuperSignal ELISA Pico Chemiluminescent Substrate (Thermo Fisher Scientific) was added and the luminescent signal was measured. To investigate GLUT4 translocation in the 3T3-L1-GLUT4myc adipocytes, the cells were prepared in a 24-well plate, and anti-c-Myc antibody (sc-789, 1:1000), HRP-conjugated anti-rabbit IgG and SIGMAFAST OPD regent (Sigma–Aldrich) were added for optical detection of the cell surface GLUT4myc levels. The GLUT4 translocation activity was normalized to that in the vehicle-treated group.

Test [2] relates to L6-GLUT4myc myotubes. As to the kind of experiment: Fluorescence immunostaining of cell surface GLUT4 and actin fibers in L6-GLUT4myc myotubes. In kind it is cell-based, rat. As to conditions: 30 μM DS20060511 or 100 nM insulin; Fig. 4c. On the procedure: Arrowheads indicate the characteristic ruffled structure of the polymerized actin and actin-associated surface GLUT4. d GLUT4 translocation activity of 30 μM DS20060511 or 100 nM insulin in the presence of the actin polymerization inhibitor, Latrunculin B, at the indicated concentrations. Values shown are means ± SEM, n = 3. **P < 0.01 vs. 0 nM Latrunculin B by one-way ANOVA followed by Dunnett’s test. e Concentration-dependent insulin-stimulated GLUT4 translocation in L6-GLUT4myc myotubes with or without 30 μM DS20060511 (n = 3). f Concentration-dependent DS20060511-stimulated 2-DG uptake with 100 nM insulin in isolated muscles from C57BL/6 mice (n = 3). Values shown are means ± SEM. ***P < 0.001 by one-way ANOVA followed by Tukey’s test. g Blood glucose levels during ITT in STZ-treated C57BL/6 mice (n = 6–7). Vehicle or indicated dose of DS20060511 was given orally at the same time as 0.1 U kg^−1 insulin injection intraperitoneally. Values shown are means ± SEM. *P < 0.05 vs. vehicle by one-way ANOVA followed by Dunnett’s test. c Scale bar in all panels, 5 μm. Uncropped blots for a and b can be found in Supplementary Fig. 6.
Differentiated L6-GLUT4myc myotubes were prepared in a collagen-coated four-well chamber slide. After serum starvation for 3 h, the cells were stimulated with insulin or DS20060511 for 15 min at 37 °C. Cells were rinsed with cold PBS(+), fixed with 4% paraformaldehyde for 30 min on ice and blocked with 1% BSA and 10% normal goat serum in PBS(+) for 30 min at room temperature. Surface GLUT4myc staining was carried out without cell membrane permeabilization. Cells were incubated with anti-c-Myc antibody for 30 min at room temperature, followed by treatment with 0.1% Triton-X. After blocking, the cells were incubated with Alexa 488-conjugated secondary antibody and Alexa 594-conjugated phalloidin for 30 min at room temperature. Fluorescence images were obtained with a Leica TSC-SP8 confocal microscope. Specimens were scanned along the z-axis and a single-composite image was generated by the maximal projection method using the LAS software (Leica Microsystems, Wetzlar, Germany).

Several values for one entry are separate records, joined by “and”; a condition that tells them apart may be missing. Equal entries are not always repeated.

For the compound “Insulin: Insulin (Humulin, Eli Lilly) in the in vivo experiments; Insulin solution human (I9278, Sigma–Aldrich) in the in vitro experiments”, the Ratio with L6-GLUT4myc myotubes [1] (Insulin 1 nM) is 1.41 and 1.40 and 1.33; in the test on L6-GLUT4myc myotubes [1] (Insulin 10 nM), 1.91 and 1.96 and 1.84; in the test with L6-GLUT4myc myotubes [1] (Insulin 100 nM), 2.47 and 2.48 and 2.46. Besides, the A - background in the test on L6-GLUT4myc myotubes [1] (Insulin 1 nM) is 0.111 and 0.106 and 0.112; in the test with L6-GLUT4myc myotubes [1] (Insulin 10 nM), 0.156 and 0.146 and 0.152; in the test with L6-GLUT4myc myotubes [1] (Insulin 100 nM), 0.196 and 0.194 and 0.195. Besides, the “A: Abs. (450 nm)” value with L6-GLUT4myc myotubes [1] (Insulin 1 nM) is 0.201 and 0.196 and 0.202; with L6-GLUT4myc myotubes [1] (Insulin 10 nM), 0.246 and 0.236 and 0.242. Besides, the GLUT4 translocation in the test on L6-GLUT4myc myotubes [1] (Insulin 100 nM, Latrunculin B 0 nM, normalized to vehicle) was 3.11 and 3.04 and 3.07; in the test with L6-GLUT4myc myotubes [1] (Insulin 100 nM, Latrunculin B 10 nM), 3.38 and 3.09 and 3.08; in the test with L6-GLUT4myc myotubes [1] (Insulin 100 nM, Latrunculin B 30 nM) it was 2.53 and 2.30 and 2.42; in the test with L6-GLUT4myc myotubes [1] (Insulin 100 nM, Latrunculin B 100 nM), 2.62 and 2.09 and 2.39; with L6-GLUT4myc myotubes [1] (Insulin 100 nM, Latrunculin B 200 nM), 2.01 and 1.93. The actin polymerization entry with L6-GLUT4myc myotubes [2] is “observed only following insulin treatment”. The “staining of GLUT4 at the cell surface” value in the test on L6-GLUT4myc myotubes [2] was “strong staining of GLUT4 at the cell surface”.

Regarding `COc1ccc2c(C)c(C(=O)O)ccc2c1C1C2=C(CC(C)(C)CC2=O)OC2=C1C(=O)CC(C)(C)C2` [DS20060511], in the test with L6-GLUT4myc myotubes [1] (30 μM DS20060511 plus insulin, also at saturating insulin concentration, Fig. 4e), the “GLUT4 translocation on co-treatment with insulin” value was “additive increase of GLUT4 translocation”. The GLUT4 translocation in the test on L6-GLUT4myc myotubes [1] (DS20060511 30 μM, Latrunculin B 0 nM, normalized to vehicle) was 1.94 and 1.98 and 1.81; in the test on L6-GLUT4myc myotubes [1] (DS20060511 30 μM, Latrunculin B 10 nM) it was 2.29 and 2.23 and 2.10; in the test on L6-GLUT4myc myotubes [1] (DS20060511 30 μM, Latrunculin B 30 nM), 1.81 and 2.08 and 1.91; in the test with L6-GLUT4myc myotubes [1] (DS20060511 30 μM, Latrunculin B 100 nM), 2.37 and 2.30 and 2.39; with L6-GLUT4myc myotubes [1] (DS20060511 30 μM, Latrunculin B 200 nM), 2.39 and 2.15 and 2.06. The Ratio is 1.26 and 1.33 in the test with L6-GLUT4myc myotubes [1] (DS20060511 0.1 μM); 1.71 and 1.72 and 1.90 with L6-GLUT4myc myotubes [1] (DS20060511 1 μM); 2.15 and 2.14 and 2.27 in the test on L6-GLUT4myc myotubes [1] (DS20060511 10 μM). The A - background with L6-GLUT4myc myotubes [1] (DS20060511 0.1 μM) was 0.100 and 0.106; in the test with L6-GLUT4myc myotubes [1] (DS20060511 1 μM), 0.137 and 0.151 and 0.136; in the test on L6-GLUT4myc myotubes [1] (DS20060511 10 μM) it was 0.170 and 0.180 and 0.171. Besides, the “A: Abs. (450 nm)” value in the test on L6-GLUT4myc myotubes [1] (DS20060511 1 μM) is 0.227 and 0.241 and 0.226; in the test on L6-GLUT4myc myotubes [1] (DS20060511 10 μM) it was 0.260 and 0.270 and 0.261. Also, the “GLUT4 translocation (in words)” value with L6-GLUT4myc myotubes [1] (differentiated L6-GLUT4myc myotubes, Fig. 1b) is on record as “increased GLUT4 translocation in differentiated L6-GLUT4myc myotubes in a concentration-dependent manner”. The actin polymerization result in the test on L6-GLUT4myc myotubes [2] is on record as “observed only following insulin treatment”. Moreover, the “staining of GLUT4 at the cell surface” value with L6-GLUT4myc myotubes [2] is reported as “strong staining of GLUT4 at the cell surface”.

Values taken from PMC8379256, “A xanthene derivative, DS20060511, attenuates glucose intolerance by inducing skeletal muscle-specific GLUT4 translocation in mice” (Communications Biology, 2021).
